Test results: PMC12070314, “Efficient Small-Molecule Reversal Agents for Anticoagulant Fondaparinux” (ACS Pharmacology & Translational Science, 2025)

What was measured:
[1] = test system: freshly extracted mouse blood; assay: Naked-eye ex vivo blood coagulation assay; format: cell-based; details: 100 μM fond + 200 μM antidote, 5 min
Protocol: Considering the results obtained in the in vitro assays, we aimed to test our molecules in a more relevant and challenging environment. To this aim, we performed naked-eye ex vivo coagulation assays (Figure ). Freshly extracted mouse blood samples were treated with fond (100 μM final concentration) in the absence and in the presence of different antidotes (two molar equivalents). Blood coagulation was visually inspected by the simple inversion of the vials. For a fair comparison between different series, all of the experiments were done in parallel with the corresponding control samples of untreated mouse blood (labeled “0” in Figure ). […] The effect of antidotes alone on blood coagulation was also tested (Figure B), showing that neither of the three small molecules appreciably changed the coagulation properties.
This naked-eye coagulation test is an adaptation of the whole blood clotting time assay. , Freshly collected mouse blood was directly used without further treatment. 300 μL aliquots were dispensed in Eppendorf tubes, to which fondaparinux (100 μM), and/or potential antidotes (3AC, 3FF, ciraparantag, or protamine, 200 μM) were added, and a picture was taken after 5 min. Clot formation was verified by inverting the Eppendorf vials.

HeLa cells = assay: MTT cell viability assay; format: cell-based; details: concentrations <100 μM
Protocol: (§1) A549 and HeLa cells were maintained in DMEM ([…] glucose, Sigma) containing 10% fetal calf serum (FCS), 2 mM glutamine, 50 U/mL penicillin, and […] streptomycin at 37 °C under a 5% CO2 atmosphere. HMEC-1 and fibroblast cells were maintained in MCDB 131 medium (GIBCO) containing 10% fetal calf serum (FCS), 2 mM glutamine, 50 U/mL penicillin, and […] streptomycin at 37 °C under a 5% CO2 atmosphere.
(§2) The viability of A549 and HeLa cells was tested using the 3-(4,5-dimethylthiazol-2-yl)-2,5-diphenyltetrazolium bromide (MTT) assay. In it, exponentially growing cells were detached from the culture flasks using a trypsin–0.25% EDTA solution, and the cell suspension was seeded onto a 96-well plate (Nunclon) at a concentration of 9k cells/well. The toxicity of 3AC and 3FF was tested as follows: 24 h after seeding, culture medium was discarded and replaced by compound solution in PBS that was diluted with cell culture medium to the final concentration: [3××] = 10 to 100 μM. MTT (0.5 mg/mL) was added. […] Absorbance was measured at 570 nm using a spectrophotometric BioTek Synergy 2 Microplate Reader (Agilent), 30 min after the addition of DMSO. Cell viability is expressed as an absorbance percent ratio of cells treated with compound to untreated cells, which were used as a control. The results are the average from three independent experiments.

A549 cells = assay: MTT cell viability assay; format: cell-based; details: A549, concentrations <100 μM
Protocol: as §1, §2

[2] = NMR titration and DOSY binding study with fondaparinux; details: water (D2O buffer), neutral pH
Excerpt: The [3AC–fond] binding was additionally studied by NMR. Titration of fond with 3AC modifies several ^1H and ^13C NMR signals that can be readily monitored by ^1H and ^1H–^13C HSQC NMR experiments (Figures and S5–S7). A close analysis of the corresponding chemical-shift perturbations (Figures C and S8) allows determination of the sugar rings to be more affected by the presence of the ligand (see the chemical structure with arbitrary labeling of the rings in Figure A). We hypothesized that [fond–3AC] binding occurs by polar interactions (through the ammonium and OH groups of 3AC with sulfate, carboxylate, and OH residues of fond) and nonpolar contacts (by CH–π interactions between aromatic rings of 3AC and pyranose CH bonds of fond). […] The corresponding ^1H NMR spectra in 90% H2O/10% D2O at pH 8.2 and 288 K allow detection of the NH-sulfamate protons (Figures D and S9) and confirmed the stronger perturbation of ring V. The conformational behavior of fond in the absence and presence of 3AC was additionally studied by acquiring a series of 2D NOESY and 2D ROESY spectra (Figures S10–S13). […]
One- and two-dimensional (1D and 2D) NMR experiments were performed at 298 K on a 500 MHz Bruker AVANCE III HD instrument equipped with a z-gradient (65.7 G cm^–1) inverse TCI-cryoprobe. Samples were dissolved in 5 mM Tris-d11 buffer with 50 mM NaCl (in D2O, pH 7.5, uncorrected pH meter reading). […]

Binding to fond by NMR [2]	Structure (SMILES)	Reversal of fond anticoagulant effect (clot formation by vial inversion) [1]	Cell viability (toxicity) (HeLa cells)	Cell viability (toxicity) (A549 cells)
strong binding	Oc1ccccc1CNCCCNCCCCNCCCNCc1ccc2c(c1)Cc1ccccc1-2 [Compound 3AC]	efficiently revert the drug effect	low to acceptable cell toxicity	low to acceptable cell toxicity
slightly weaker binding	Oc1ccc2ccccc2c1CNCCCNCCCCNCCCNCc1c(O)ccc2ccccc12 [Compound 3FF]	efficiently revert the drug effect	low to acceptable cell toxicity	low to acceptable cell toxicity
